The text below walks through data of US5026703A, “Peptide oxytocin antagonists” (priority 1990, dated 1991).

The IC50 is the concentration needed to halve the response being measured.

SMILES strings stand for the structures. Where a name gives a salt, the structure may show the parent alone. Read-outs that look alike come from different tables or passages of the source. *1 amine or outer side, *2 acyl side, *3 side chain or, on linkers, in order; H or OH if unused. Where a SMILES comes first, the peptide text is derived from it. [ ]: non-standard residue; d: D form. X12 = C=CCSC(=N[C@H](C(=O)[*:2])[C@@H](C)CC)[C@@H](Cc1ccccc1)N[*:1]; X11 = CC(C)(C)OC(=O)CSC1=NN([*:1])[C@H](C(=O)[*:2])CC1; X2 = O=C([C@@H]1[C@@H](O)[C@@H](O)C=NN1[*:1])[*:2]; X10 = O=C1CC[C@@H](C(=O)[*:2])N([*:1])N1; Piz(1,6-dehydro) = O=C(O)[C@@H]1CCC=NN1; X3 = C=C1C=NN([*:1])[C@H](C(=O)[*:2])C1; dPiz(1,6-dehydro) = O=C(O)[C@H]1CCC=NN1; X9 = O=C([C@@H]1C=CC=NN1[*:1])[*:2]; X1 = O=C([C@H]1CCCNN1[*:1])[*:2]; dNMeF = CN[C@H](Cc1ccccc1)C(=O)O A value given as a limit tells only on which side of the number the result lay.

One experiment addresses AVP-V1 sites (Rattus norvegicus, UniProt P30560). As to the kind of experiment: [3H]AVP radioligand binding to male rat liver crude membrane preparation (AVP-V1 sites). The procedure:
(§1) Nonspecific binding (5-10% of the total binding) was determined using 10 μM unlabeled AVP, and the binding reaction was terminated by filtration as described above for the [^3 H]OT binding assay.
(§2) +Butlen, D; Guillon, G; Rajerison, RM; Jard, S; Sawyer, WH; Manning, M. 1978 Mol Pharmacol 14:1006.

For another experiment, the target named is AVP-V2 sites (Rattus norvegicus, UniProt Q00788). The experiment can be described thus: [3H]AVP radioligand binding to rat kidney medulla crude membrane preparation (AVP-V2 sites). To be noted: rat kidney medulla membranes; 2 nM [3H]AVP; 30 min at 30° C.; read-out: Receptor Binding Results IC50 (nM) [^3 H]-AVP-V2. The protocol:
as §1, §2

In the next experiment the target is T1, uterine OT receptors (Rattus norvegicus, UniProt P70536).
T1 construct: from tissue; host or cells: uterus of DES-treated rats, crude membranes
T1 sequence (P70536 1-388): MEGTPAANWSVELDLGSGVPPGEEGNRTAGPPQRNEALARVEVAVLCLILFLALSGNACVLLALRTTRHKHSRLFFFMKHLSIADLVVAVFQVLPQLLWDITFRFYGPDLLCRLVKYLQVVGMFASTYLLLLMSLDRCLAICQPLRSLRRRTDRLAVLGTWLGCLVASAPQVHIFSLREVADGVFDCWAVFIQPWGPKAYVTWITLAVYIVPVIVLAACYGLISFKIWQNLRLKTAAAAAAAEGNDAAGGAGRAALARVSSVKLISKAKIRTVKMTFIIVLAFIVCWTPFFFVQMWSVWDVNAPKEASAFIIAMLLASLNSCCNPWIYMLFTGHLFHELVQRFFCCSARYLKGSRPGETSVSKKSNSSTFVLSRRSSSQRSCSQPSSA
As to the kind of experiment: [3H]OT radioligand binding to uterine OT receptors, crude membrane preparation. As to conditions: uteri of DES-treated rats; 1 nM [3H]OT; 60 min, 22° C.; inhibits specific binding by 50%; read-out: Receptor Binding Results IC50 (nM) [3H]OT. The protocol: The high affinity binding of [^3 H]OT ([tyrosyl, 3,5-[^3 H]OT; 30-60 Ci/mmol; New England Nuclear Boston, Mass.) to uterine OT receptors was based on an assay* using a crude membrane preparation of uteri taken from diethylstilbestrol dipropionate (DES)-treated (0.3 mg/kg, ip; 18-24) rats. Competition studies were conducted at equilibrium (60 min; 22° C.) using 1 nM [^3 H]OT in the following assay buffer: 50 mM Tris-HCl, 5 mM MgCl2, and 0.1% BSA, pH 7.4. Nonspecific binding (10% of the total binding) was determined using 1 μM unlabeled OT and the binding reaction was terminated by filtration through glass fiber filters using a cell harvester (model 7019, Skatron, Inc., Sterling, Va.).
*Fuchs, A-R; Fuchs, F; Soloff, MS. 1985 J. Clin. Endocrinol. Metab. 60:37.

Where [1] appears, read: male rat liver membranes, 1 nM [3H]AVP, 30 min at 30° C., read-out: Receptor Binding Results IC50 (nM) [^3 H]-AVP-V1.

AVP-V2 sites, sequence (Q00788 whole entry): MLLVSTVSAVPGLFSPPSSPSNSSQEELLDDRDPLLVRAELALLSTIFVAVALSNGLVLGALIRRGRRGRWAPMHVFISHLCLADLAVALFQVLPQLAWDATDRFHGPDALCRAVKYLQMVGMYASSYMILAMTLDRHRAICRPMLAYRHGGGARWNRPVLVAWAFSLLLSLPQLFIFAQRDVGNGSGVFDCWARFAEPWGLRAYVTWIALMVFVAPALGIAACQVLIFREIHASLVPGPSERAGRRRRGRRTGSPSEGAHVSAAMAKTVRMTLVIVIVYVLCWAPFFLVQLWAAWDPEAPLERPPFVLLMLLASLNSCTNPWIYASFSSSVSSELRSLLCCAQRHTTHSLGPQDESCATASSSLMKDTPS
AVP-V1 sites, sequence (P30560 whole entry): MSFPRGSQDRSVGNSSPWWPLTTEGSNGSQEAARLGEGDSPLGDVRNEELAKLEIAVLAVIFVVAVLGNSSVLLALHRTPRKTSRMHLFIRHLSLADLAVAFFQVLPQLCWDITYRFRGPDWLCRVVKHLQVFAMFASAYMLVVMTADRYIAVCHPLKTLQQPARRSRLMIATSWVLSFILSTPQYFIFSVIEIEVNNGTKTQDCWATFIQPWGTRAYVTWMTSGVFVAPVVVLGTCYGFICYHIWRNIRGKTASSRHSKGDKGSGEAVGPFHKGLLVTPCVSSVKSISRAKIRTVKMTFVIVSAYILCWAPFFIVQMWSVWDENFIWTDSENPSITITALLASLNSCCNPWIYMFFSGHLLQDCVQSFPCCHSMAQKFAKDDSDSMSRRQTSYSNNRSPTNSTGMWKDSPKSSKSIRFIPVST

For the compound `C=C1C=NN2C(=O)[C@H]3CCC=NN3C(=O)[C@H]([C@@H](C)CC)NC(=O)[C@@H](Cc3ccccc3)NC(=O)[C@@H]3CCCN3C(=O)[C@@H](Cc3ccccc3)N(C)C(=O)[C@@H]2C1` [Example 20, cyclo-[D-Phenylalanyl-L-isoleucyl-D-2,3,4,5-tetrahydro-3-pyridazinecarbonyl-5-methylene-L-2,3,4,5,-tetrahydro-3-pyridazinecarbonyl-N-methyl-D-phenylalanyl-L-prolyl]] (cyclo(I[dPiz(1,6-dehydro)][X3][dNMeF]P[dF])), the values for the IC50 on AVP-V1 sites (setting [1]), at AVP-V2 sites and on uterine OT receptors were greater than 10000 nM, greater than 10000 nM and 37 nM, respectively.

For `CC[C@H](C)[C@@H]1NC(=O)[C@@H](Cc2ccccc2)NC(=O)[C@@H]2CCCN2C(=O)[C@@H](Cc2ccccc2)N(C)C(=O)[C@@H]2[C@@H](O)[C@@H](O)C=NN2C(=O)[C@H]2CCCNN2C1=O` [Example 14, cyclo-[D-Phenylalanyl-L-isoleucyl-D-hexahydro-3-pyridazinecarbonyl-(3α,4β,5β)-4,5-dihydroxy-L-2,3,4,5-tetrahydro-3-pyridazinecarbonyl-N-methyl-D-phenylalanyl-L-prolyl]trifluoroacetate salt.] (cyclo(I[X1][X2][dNMeF]P[dF])), the 50% inhibitory concentration (IC50) was 10000 nM on AVP-V1 sites (setting [1]), greater than 10000 nM on AVP-V2 sites and 290 nM on uterine OT receptors.

Turning to `CC[C@H](C)[C@@H]1NC(=O)[C@@H](Cc2ccccc2)NC(=O)[C@@H]2CCCN2C(=O)[C@@H](Cc2ccccc2)N(C)C(=O)[C@@H]2CCC(SCC(=O)OC(C)(C)C)=NN2C(=O)[C@H]2CCC=NN2C1=O` [Example 9, cyclo-[D-Phenylalanyl-L-isoleucyl-D-2,3,4,5-tetrahydro-3-pyridazinecarbonyl-6-[[2-(1,1-dimethylethoxy)-2-oxoethyl]thio]-L-2,3,4,5-tetrahydro-3-pyridazine-carbonyl-N-methyl-D-phenylalanyl-L-prolyl]] (cyclo(I[dPiz(1,6-dehydro)][X11][dNMeF]P[dF])), the half-inhibitory concentration (IC50) on AVP-V1 sites amounted to 10000 nM; on AVP-V2 sites, 10000 nM; at uterine OT receptors it was 564 nM.

For `CC[C@H](C)[C@@H]1NC(=O)[C@@H](Cc2ccccc2)NC(=O)[C@@H]2CCCN2C(=O)[C@@H](Cc2ccccc2)N(C)C(=O)[C@@H]2C=CC=NN2C(=O)[C@H]2CCC=NN2C1=O` [Example 8, cyclo-[D-Phenylalanyl-L-isoleucyl-D-2,3,4,5-tetrahydro-3-pyridazinecarbonyl-L-2,3-dihydro-3-pyridazine-carbonyl-N-methyl-D-phenylalanyl-L-prolyl]] (cyclo(I[dPiz(1,6-dehydro)][X9][dNMeF]P[dF])), the IC50 on AVP-V1 sites (setting [1]) worked out at 1410 nM; at AVP-V2 sites it was 1350 nM; on uterine OT receptors, 20 nM.

Turning to `C=C1C=NN2C(=O)[C@H]3CCC=NN3C(=O)[C@H]([C@@H](C)CC)NC(=S)[C@@H](Cc3ccccc3)NC(=O)[C@@H]3CCCN3C(=O)[C@@H](Cc3ccccc3)N(C)C(=O)[C@@H]2C1` [Example 19, cyclo-[D-Thiophenylalanyl-L-isoleucyl-D-2,3,4,5-tetrahydro-3-pyridazinecarbonyl-5-methylene-L-2,3,4,5-tetrahydro-3-pyridazinecarbonyl-N-methyl-D-phenylalanyl-L-prolyl]], the values for the IC50 on AVP-V1 sites (setting [1]), at AVP-V2 sites and on uterine OT receptors were greater than 1000 nM, greater than 1000 nM and 3.6 nM, respectively.

As for `CC[C@H](C)[C@@H]1NC(=O)[C@@H](Cc2ccccc2)NC(=O)[C@@H]2CCCN2C(=O)[C@@H](Cc2ccccc2)N(C)C(=O)[C@@H]2CCC(=O)NN2C(=O)[C@H]2CCC=NN2C1=O` [Example 3, cyclo-[D-Phenylalanyl-L-isoleucyl-D-2,3,4,5-tetrahydro-3-pyridazinecarbonyl-L-hexahydro-6-oxo-3-pyridazinecarbonyl-N-methyl-D-phenylalanyl-L-prolyl]] (cyclo(I[dPiz(1,6-dehydro)][X10][dNMeF]P[dF])), the figures for the concentration for half-maximal inhibition (IC50) on AVP-V1 sites (setting [1]), at AVP-V2 sites and on uterine OT receptors were 4700 nM, 17000 nM and 20 nM, respectively.

For `C=CCSC1=N[C@@H]([C@@H](C)CC)C(=O)N2N=CCC[C@@H]2C(=O)N2N=CCC[C@H]2C(=O)N(C)[C@H](Cc2ccccc2)C(=O)N2CCC[C@H]2C(=O)N[C@@H]1Cc1ccccc1` [Example 12, cyclo-[(R)-N-(2-amino-3-phenyl-1-(2-propenylthio)-propylidene)-L-isoleucyl-D-2,3,4,5-tetrahydro-3-pyridazinecarbonyl-L-2,3,4,5-tetrahydro-3-pyridazine-carbonyl-N-methyl-D-phenylalanyl-L-prolyl]] (cyclo(P[X12][dPiz(1,6-dehydro)][Piz(1,6-dehydro)][dNMeF])), the IC50 is greater than 10000 nM on AVP-V1 sites (setting [1]), greater than 10000 nM on AVP-V2 sites and 710 nM at uterine OT receptors.
